For assay [1], the target named is T1, glucocorticoid receptor (GR-α) (Homo sapiens, UniProt P04150).
T1 sequence (P04150 1-777): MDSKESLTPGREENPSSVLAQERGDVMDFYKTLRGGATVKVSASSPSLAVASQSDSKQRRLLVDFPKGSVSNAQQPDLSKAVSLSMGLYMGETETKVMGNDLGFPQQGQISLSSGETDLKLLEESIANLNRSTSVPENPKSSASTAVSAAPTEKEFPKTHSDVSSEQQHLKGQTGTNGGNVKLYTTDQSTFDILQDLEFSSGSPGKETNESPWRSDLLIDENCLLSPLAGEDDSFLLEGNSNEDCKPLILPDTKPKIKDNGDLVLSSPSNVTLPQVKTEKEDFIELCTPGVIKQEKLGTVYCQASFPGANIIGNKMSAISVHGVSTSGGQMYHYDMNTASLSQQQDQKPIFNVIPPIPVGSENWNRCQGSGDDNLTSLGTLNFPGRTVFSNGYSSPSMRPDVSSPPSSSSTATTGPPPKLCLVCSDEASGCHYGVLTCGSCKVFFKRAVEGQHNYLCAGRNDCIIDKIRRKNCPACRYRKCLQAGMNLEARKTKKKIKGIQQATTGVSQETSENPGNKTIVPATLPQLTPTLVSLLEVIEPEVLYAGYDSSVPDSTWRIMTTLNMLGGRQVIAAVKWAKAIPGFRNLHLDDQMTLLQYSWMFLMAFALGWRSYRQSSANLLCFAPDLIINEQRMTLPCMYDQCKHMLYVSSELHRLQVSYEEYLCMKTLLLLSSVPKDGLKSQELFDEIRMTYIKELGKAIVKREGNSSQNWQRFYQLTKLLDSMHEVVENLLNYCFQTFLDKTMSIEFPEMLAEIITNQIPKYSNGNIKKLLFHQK
Further details: gene NR3C1.

Assay [2] addresses T1, glucocorticoid receptor (GR-α). The experiment in a line: inhibition of [3H]-dexamethasone binding in intact GR-transfected HEK-293 cells, overnight DBT preincubation ([…] for […] inhibition without preincubation); also transactivation reporter. In kind it is cell-based. Also on record: gene NR3C1; human GR-α, transiently expressed in HEK-293 cells.

pIC50: −log10 of the molar value.

From paper PMC2568824, “Dibutyltin Disrupts Glucocorticoid Receptor Function and Impairs Glucocorticoid-Induced Suppression of Cytokine Production” (PLoS ONE, 2008) come the findings set out here.

By pIC50 is commonly meant the IC50 on a negative log10 scale, so that one unit is a factor of ten. Low values mean a large IC50, high ones a small IC50.

As for `C[C@@H]1C[C@H]2[C@@H]3CCC4=CC(=O)C=C[C@]4(C)[C@@]3(F)[C@@H](O)C[C@]2(C)[C@@]1(O)C(=O)CO` [Dex, dexamethasone], the “radioligand binding (10 nM [3H]-dexamethasone) and displacement by unlabeled dex” value in assay [1] is “Addition of unlabeled dexamethasone revealed a typical displacement pattern of tritiated dexamethasone in the presence or absence of DBT”.
The compound dibutyltin [DBT] had a negative logarithm of the IC50 (pIC50) in assay [2] of approximately 7.30.
